Measured values from PubChem BioAssay AID248 (DTP/NCI, 2004).
Toxic doses and inconclusive results are not listed. Cut-off read from the data, not from the text of the source: active = T/C of 150% or more; inactive = T/C below 125%.

Tested on: L1210 leukemia ip in BDF1 mice, survival T/C
Test: NCI In Vivo Anticancer Drug Screen. Data for tumor model L1210 Leukemia (intraperitoneal) in B6D2F1 (BDF1) mice
Conditions: endpoint: mean survival time, higher = longer survival
Method in brief: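 Value reflects the ratio of survival in compound-treated mice to survival in vehicle-treated controls, with both groups carrying the same transplanted tumor.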

[1] = dose: 100.0 mg/kg/injection, schedule: Q04DX003 (ip), vehicle: Klucel (hydroxypropylcellulose) (HPC)
[2] = dose: 200.0 mg/kg/injection, schedule: Q04DX003 (ip), vehicle: Klucel (hydroxypropylcellulose) (HPC)
[3] = dose: 400.0 mg/kg/injection, schedule: Q04DX003 (ip), vehicle: Klucel (hydroxypropylcellulose) (HPC)
[4] = dose: 100.0 mg/kg/injection, schedule: Q01DX009 (ip), vehicle: saline with Tween-80
[5] = dose: 100.0 mg/kg/injection, schedule: Q04DX003 (ip), vehicle: saline with Tween-80
[6] = dose: 200.0 mg/kg/injection, schedule: Q01DX009 (ip), vehicle: saline with Tween-80
[7] = dose: 200.0 mg/kg/injection, schedule: Q04DX003 (ip), vehicle: saline with Tween-80
[8] = dose: 400.0 mg/kg/injection, schedule: Q01DX009 (ip), vehicle: saline with Tween-80
[9] = dose: 400.0 mg/kg/injection, schedule: Q04DX003 (ip), vehicle: saline with Tween-80
[10] = dose: 100.0 mg/kg/injection, schedule: Q01DX001 (ip), vehicle: saline
[11] = dose: 200.0 mg/kg/injection, schedule: Q01DX001 (ip), vehicle: saline
[12] = dose: 400.0 mg/kg/injection, schedule: Q01DX001 (ip), vehicle: saline
[13] = dose: 100.0 mg/kg/injection, schedule: Q01DX009 (ip), vehicle: Klucel (hydroxypropylcellulose) (HPC)

Measured: T/C

CCCCCCCCCCCCn1c(C)nc2ccccc21
inactive: dose: 2.4 mg/kg/injection, schedule: Q03HX024 (ip), vehicle: saline 94 % of control | dose: 3.6 mg/kg/injection, schedule: Q03HX024 (ip), vehicle: saline 91 % of control | dose: 5.0 mg/kg/injection, schedule: Q01DX001 (ip), vehicle: saline 104 % of control | dose: 5.0 mg/kg/injection, schedule: Q04DX003 (ip), vehicle: carboxymethylcellulose (CMC) 105 % of control | dose: 5.4 mg/kg/injection, schedule: Q03HX024 (ip), vehicle: saline 97 % of control | dose: 8.0 mg/kg/injection, schedule: Q03HX024 (ip), vehicle: saline 96 % of control | dose: 10.0 mg/kg/injection, schedule: Q01DX001 (ip), vehicle: saline 101 % of control | dose: 10.0 mg/kg/injection, schedule: Q04DX003 (ip), vehicle: carboxymethylcellulose (CMC) 106 % of control | dose: 12.0 mg/kg/injection, schedule: Q01DX009 (ip), vehicle: saline 116 % of control | dose: 12.0 mg/kg/injection, schedule: Q03HX024 (ip), vehicle: saline 104 % of control | dose: 18.0 mg/kg/injection, schedule: Q01DX009 (ip), vehicle: saline 118 % of control | dose: 20.0 mg/kg/injection, schedule: Q01DX001 (ip), vehicle: saline 104 % of control | dose: 20.0 mg/kg/injection, schedule: Q04DX003 (ip), vehicle: carboxymethylcellulose (CMC) 108 % of control | dose: 24.0 mg/kg/injection, schedule: Q01DX001 (ip), vehicle: saline 106 % of control | dose: 24.0 mg/kg/injection, schedule: Q04DX003 (ip), vehicle: saline 113 % of control | dose: 27.0 mg/kg/injection, schedule: Q01DX009 (ip), vehicle: saline 113 % of control | dose: 36.0 mg/kg/injection, schedule: Q01DX001 (ip), vehicle: saline 105 % of control | dose: 36.0 mg/kg/injection, schedule: Q04DX003 (ip), vehicle: saline 104 % of control | dose: 40.0 mg/kg/injection, schedule: Q01DX001 (ip), vehicle: saline 112 % of control

CCOC(=O)c1cc(C)n(-c2ccc(-c3ccc(-n4c(C)cc(C(=O)OCC)c4C)c(C)c3)cc2C)c1C
inactive: [1] 98 % of control | [2] 101 % of control | [3] 93 % of control

O=C1C2C3CCC(O3)C2C(=O)N1CC#CCCl (configuration not stated)
inactive: dose: 6.25 mg/kg/injection, schedule: Q04DX002 (ip), vehicle: saline with Tween-80 100 % of control | dose: 12.5 mg/kg/injection, schedule: Q04DX002 (ip), vehicle: saline with Tween-80 106 % of control

Cc1ccc(NC(=O)Oc2ccc(F)cc2Cl)cc1NC(=O)Oc1ccc(F)cc1Cl
inactive: [4] 91 % of control | [5] 95 % of control | [6] 100 % of control | [7] 88 % of control | [8] 86 % of control | [9] 95 % of control

O=S(=O)(F)c1ccc(-c2cc(Cl)c3cc(F)ccc3n2)cc1
inactive: [1] 105 % of control | [2] 106 % of control | [3] 106 % of control

Cc1nc(N)[nH]c(=O)c1CCCN(c1ccccc1)S(=O)(=O)c1ccc([N+](=O)[O-])cc1
inactive: dose: 6.25 mg/kg/injection, schedule: Q01DX001 (ip), vehicle: saline with Tween-80 104 % of control | dose: 12.5 mg/kg/injection, schedule: Q01DX001 (ip), vehicle: saline with Tween-80 100 % of control | dose: 25.0 mg/kg/injection, schedule: Q01DX001 (ip), vehicle: saline with Tween-80 98 % of control

O=C(/C=C/C=C/c1cccc([N+](=O)[O-])c1)CCl
inactive: [10] 101 % of control | [11] 95 % of control | [12] 103 % of control

O=CC(CCN1CCCCC1)(CCN1CCCCC1)c1cccc2ccccc12
inactive: dose: 25.0 mg/kg/injection, schedule: Q04DX002 (ip), vehicle: Klucel (hydroxypropylcellulose) (HPC) 107 % of control | dose: 50.0 mg/kg/injection, schedule: Q04DX002 (ip), vehicle: Klucel (hydroxypropylcellulose) (HPC) 100 % of control | [13] 105 % of control | dose: 100.0 mg/kg/injection, schedule: Q04DX002 (ip), vehicle: Klucel (hydroxypropylcellulose) (HPC) 98 % of control

CCCCOP(=O)(Cc1ccccc1)Oc1ccccc1 (configuration not stated)
inactive: [13] 95 % of control | dose: 200.0 mg/kg/injection, schedule: Q01DX009 (ip), vehicle: Klucel (hydroxypropylcellulose) (HPC) 97 % of control | dose: 400.0 mg/kg/injection, schedule: Q01DX009 (ip), vehicle: Klucel (hydroxypropylcellulose) (HPC) 105 % of control

CCCCCCCCNC(=O)c1ccc([N+](=O)[O-])s1
inactive: dose: 100.0 mg/kg/injection, schedule: Q01DX005 (ip), vehicle: saline 94 % of control | dose: 200.0 mg/kg/injection, schedule: Q01DX005 (ip), vehicle: saline 94 % of control | dose: 400.0 mg/kg/injection, schedule: Q01DX005 (ip), vehicle: saline 94 % of control

CN1CCN(CCCN2C(c3ccccc3)C2c2ccccc2)CC1 (configuration not stated)
inactive: dose: 50.0 mg/kg/injection, schedule: Q04DX003 (ip), vehicle: saline 101 % of control | dose: 100.0 mg/kg/injection, schedule: Q04DX003 (ip), vehicle: saline 93 % of control | dose: 200.0 mg/kg/injection, schedule: Q04DX003 (ip), vehicle: saline 93 % of control

CCC(=O)N(c1ccccc1)C1/C(=C\c2ccccc2)N2CCC1CC2 (configuration not stated)
inactive: [1] 97 % of control | [2] 95 % of control | [3] 95 % of control

CC(C)CC(N)C(=O)NCCCl (configuration not stated)
inactive: dose: 30.0 mg/kg/injection, schedule: Q01DX Z (ip), vehicle: saline 88 % of control | dose: 100.0 mg/kg/injection, schedule: Q01DX Z (ip), vehicle: saline 102 % of control | dose: 300.0 mg/kg/injection, schedule: Q01DX Z (ip), vehicle: saline 88 % of control

O=c1ccccn1CCc1ccccc1
inactive: dose: 12.5 mg/kg/injection, schedule: Q04DX003 (ip), vehicle: saline with Tween-80 95 % of control | dose: 25.0 mg/kg/injection, schedule: Q04DX003 (ip), vehicle: saline with Tween-80 101 % of control | dose: 50.0 mg/kg/injection, schedule: Q04DX003 (ip), vehicle: saline with Tween-80 97 % of control

CCCCCC(O)C(O)CC(O)C(O)CCCCCCCC(=O)O (configuration not stated)
inactive: [10] 89 % of control | [11] 105 % of control | [12] 96 % of control

CN(C)Cc1ccccc1CO
inactive: dose: 75.0 mg/kg/injection, schedule: Q04DX002 (ip), vehicle: Klucel (hydroxypropylcellulose) (HPC) 101 % of control | dose: 150.0 mg/kg/injection, schedule: Q04DX002 (ip), vehicle: Klucel (hydroxypropylcellulose) (HPC) 90 % of control | dose: 300.0 mg/kg/injection, schedule: Q04DX002 (ip), vehicle: Klucel (hydroxypropylcellulose) (HPC) 97 % of control

O=C(O)C(O)(c1ccccc1)C(O)c1ccccc1 (configuration not stated)
inactive: [4] 113 % of control | [5] 100 % of control | [6] 97 % of control | [7] 100 % of control | [8] 98 % of control | [9] 95 % of control

CC(O)c1nc2ccccc2n1C (configuration not stated)
inactive: dose: 333.0 mg/kg/injection, schedule: Q01DX Z (ip), vehicle: saline 118 % of control | dose: 500.0 mg/kg/injection, schedule: Q01DX Z (ip), vehicle: saline 98 % of control

CCN(C(=O)CCl)c1ccccc1C
inactive: dose: 50.0 mg/kg/injection, schedule: Q01DX009 (ip), vehicle: saline with Tween-80 91 % of control | [4] 100 % of control
